The source made the active and inactive calls. No cut-off for these calls is given here.
Experiments:
Hepatitis B virus [1] = test: Antiviral activity against Hepatitis B virus infected in human HepaRG cells assessed as inhibition of […] measured on day 11 post-infection by chemiluminescence immunostaining assay; type: functional, organism-based; conditions: 264 h
Hepatitis B virus [2] = test: (§1) Antiviral activity against Hepatitis B virus infected in human HepaRG cells assessed as inhibition of […] under CYP450 restriction pre-treated for 1 hr with CYP450 inhibitors ABT and SKF-525A on day 5 post-infection followed by removal of media and supplemented with fresh media containing diluted compound and further incubated for 3 days then followed by treatment for 1 hr with CYP450 inhibitors ABT and SKF-525A on day 8 post-infection followed by removal of media and supplemented with fresh media containing diluted compound and further incubated for 3 days in presence of 25 uM SKF-525A and measured on day 11 post-infection by chemiluminescence immunostaining assay; type: functional, organism-based
[3] = as §1, with “Ratio of EC50 for antiviral activity against” for “Antiviral activity against”, “assessed as fold change for inhibition of HBV DNA replication under normal condition to EC50 for inhibition of” for “assessed as inhibition of”; type: functional; conditions: time 6 day
[4] = Half life in human primary hepatocytes at 1 uM measured up to 3 hrs by LC-MS/MS analysis; type: ADME, cell-based, Hepatocyte
[5] = Half life in human primary hepatocytes at 1 uM measured up to 3 hrs under CYP450 restriction in presence of CYP450 inhibitiors ABT and SKF-525A by LC-MS/MS analysis; type: ADME, cell-based, Hepatocyte
[6] = Cytotoxicity against human HepaRG cells assessed as effect on cell viability; type: cell-based
Hepatitis B virus [7] = test: (§2) Antiviral activity against Hepatitis B virus infected in human primary hepatocytes assessed as reduction in HbsAg secretion level at 50 uM treated for 1 hr on day 5 post-infection followed by removal of media and supplemented with fresh media and further incubated for 3 days then followed by treatment for 1 hr on day 8 post-infection followed by removal of media and supplemented with fresh media and further incubated for 3 days in presence of 10 mM ABT and measured on day 11 post-infection by chemiluminescence immunostaining assay relative to control; type: functional, organism-based; conditions: Primary hepatocyte
HepaRG [8] = test: (§3) Cytotoxicity against human HepaRG cells infected with HBV assessed as reduction in cell viability at 50 uM treated for 1 hr on day 5 post-infection followed by removal of media and supplemented with fresh media and further incubated for 3 days then followed by treatment for 1 hr on day 8 post-infection followed by removal of media and supplemented with fresh media and further incubated for 3 days in presence of 10 mM ABT and measured on day 11 post-infection by Celltiter-Glo assay; type: cell-based
Hepatitis B virus [9] = test: as §2, with “in human HepaRG cells assessed as” for “in human primary hepatocytes assessed as”, “for 3 B37days then followed” for “for 3 days then followed”, “immunostaining assay” for “immunostaining assay relative to control”; type: functional, organism-based
Cytochrome P450 3A4 [10] = target: T1, Cytochrome P450 3A4 (Homo sapiens, UniProt P08684); test: (§4) Inhibition of CYP3A4 in HBV-infected human primary hepatocytes at 5 to 100 uM using luciferin-IPA as substrate treated for 1 hr on day 5 post-infection followed by removal of media and supplemented with fresh media and further incubated for 3 days then followed by treatment for 1 hr on day 8 post-infection followed by removal of media and supplemented with fresh media and further incubated for 3 days and measured on day 11 post-infection by P450-Glo chemiluminescent assay; type: ADME, tissue-based, Primary hepatocyte; conditions: dose 5-100 µM
Cytochrome P450 2C9 [11] = target: T2, Cytochrome P450 2C9 (Homo sapiens, UniProt P11712); test: as §4, with “CYP2C9” for “CYP3A4”, “luciferin-H” for “luciferin-IPA”; type: ADME, tissue-based, Primary hepatocyte; conditions: dose 5-100 µM
Cytochrome P450 1A2 [12] = target: T3, Cytochrome P450 1A2 (Homo sapiens, UniProt P05177); test: as §4, with “CYP1A2” for “CYP3A4”, “hepatocytes cells” for “hepatocytes”, “luciferin-1A2” for “luciferin-IPA”; type: ADME, tissue-based, Primary hepatocyte; conditions: dose 5-100 µM
T3 sequence (P05177 whole entry): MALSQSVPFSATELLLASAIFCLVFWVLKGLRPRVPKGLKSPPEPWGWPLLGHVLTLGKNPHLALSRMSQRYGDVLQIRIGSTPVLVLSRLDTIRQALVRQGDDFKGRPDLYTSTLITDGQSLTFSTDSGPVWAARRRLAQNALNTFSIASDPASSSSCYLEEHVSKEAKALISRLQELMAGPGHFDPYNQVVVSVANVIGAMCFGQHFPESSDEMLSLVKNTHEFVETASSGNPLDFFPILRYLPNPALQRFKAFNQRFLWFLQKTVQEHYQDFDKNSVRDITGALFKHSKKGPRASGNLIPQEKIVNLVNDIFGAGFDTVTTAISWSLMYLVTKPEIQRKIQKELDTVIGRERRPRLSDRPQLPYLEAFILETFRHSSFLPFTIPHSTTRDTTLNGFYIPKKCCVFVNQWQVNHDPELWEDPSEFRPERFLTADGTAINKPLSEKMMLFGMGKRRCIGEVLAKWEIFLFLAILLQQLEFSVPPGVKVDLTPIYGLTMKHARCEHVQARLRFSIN

CYP3A4 [13] = target: T4, CYP3A4 (Homo sapiens, UniProt P08684); test: (§5) Inhibition of CYP3A4 in HBV-infected human HepaRG cells at 50 uM using luciferin-IPA as substrate treated for 1 hr on day 5 post-infection followed by removal of media and supplemented with fresh media and further incubated for 3 days then followed by treatment for 1 hr on day 8 post-infection followed by removal of media and supplemented with fresh media and further incubated for 3 days in presence of 10 mM ABT and measured on day 11 post-infection by P450-Glo chemiluminescent assay relative to control; type: ADME, tissue-based; conditions: probe luciferin-IPA, with ABT 10 mM
CYP3A4 [14] = target: T4, CYP3A4; test: (§6) Inhibition of CYP3A4 in HBV-infected human HepaRG cells at 50 uM using luciferin-IPA as substrate treated for 1 hr on day 5 post-infection followed by removal of media and supplemented with fresh media and further incubated for 3 days in presence of 10 mM ABT by P450-Glo chemiluminescent assay relative to control; type: ADME, tissue-based; conditions: probe luciferin-IPA, with ABT 10 mM
CYP2C9 [15] = target: T5, CYP2C9 (Homo sapiens, UniProt P11712); test: as §5, with “CYP2C9” for “CYP3A4”, “luciferin-H” for “luciferin-IPA”; type: ADME, tissue-based; conditions: probe luciferin-H, with ABT 10 mM
CYP2C9 [16] = target: T5, CYP2C9; test: as §6, with “CYP2C9” for “CYP3A4”, “luciferin-H” for “luciferin-IPA”; type: ADME, tissue-based; conditions: probe luciferin-H, with ABT 10 mM
CYP1A2 [17] = target: T6, CYP1A2 (Homo sapiens, UniProt P05177); test: as §5, with “CYP1A2” for “CYP3A4”, “luciferin-1A2” for “luciferin-IPA”; type: ADME, tissue-based; conditions: probe luciferin-1A2, with ABT 10 mM
T6 sequence (P05177 whole entry): T3 sequence (P05177 whole entry)

CYP1A2 [18] = target: T6, CYP1A2; test: as §6, with “CYP1A2” for “CYP3A4”, “luciferin-1A2” for “luciferin-IPA”; type: ADME, tissue-based; conditions: probe luciferin-1A2, with ABT 10 mM
CYP3A4 [19] = target: T4, CYP3A4; test: as §5, with “days” for “days in presence of 10 mM ABT”; type: ADME, tissue-based; conditions: probe luciferin-IPA
CYP3A4 [20] = target: T4, CYP3A4; test: Inhibition of CYP3A4 in HBV-infected human HepaRG cells at 50 uM using luciferin-IPA as substrate treated for 1 hr on day 5 post-infection followed by removal of media and supplemented with fresh media and further incubated for 3 days by P450-Glo chemiluminescent assay relative to control; type: ADME, tissue-based; conditions: probe luciferin-IPA
CYP2C9 [21] = target: T5, CYP2C9; test: as §5, with “CYP2C9” for “CYP3A4”, “luciferin-H” for “luciferin-IPA”, “days” for “days in presence of 10 mM ABT”; type: ADME, tissue-based; conditions: probe luciferin-H
CYP2C9 [22] = target: T5, CYP2C9; test: Inhibition of CYP2C9 in HBV-infected human HepaRG cells at 50 uM using luciferin-H as substrate treated for 1 hr on day 5 post-infection followed by removal of media and supplemented with fresh media and further incubated for 3 days by P450-Glo chemiluminescent assay relative to control; type: ADME, tissue-based; conditions: probe luciferin-H
CYP1A2 [23] = target: T6, CYP1A2; test: as §5, with “CYP1A2” for “CYP3A4”, “luciferin-1A2” for “luciferin-IPA”, “days” for “days in presence of 10 mM ABT”; type: ADME, tissue-based; conditions: probe luciferin-1A2
CYP1A2 [24] = target: T6, CYP1A2; test: Inhibition of CYP1A2 in HBV-infected human HepaRG cells at 50 uM using luciferin-1A2 as substrate treated for 1 hr on day 5 post-infection followed by removal of media and supplemented with fresh media and further incubated for 3 days by P450-Glo chemiluminescent assay relative to control; type: ADME, tissue-based; conditions: probe luciferin-1A2
HepaRG [25] = test: as §3, with “5 to 100” for “50”, “days” for “days in presence of 10 mM ABT”; type: cell-based; conditions: dose 5-100 µM
Cytochrome P450 3A4 [26] = target: T1, Cytochrome P450 3A4; test: as §4, with “HepaRG cells” for “primary hepatocytes”; type: ADME, tissue-based; conditions: dose 5-100 µM
Cytochrome P450 2C9 [27] = target: T2, Cytochrome P450 2C9; test: as §4, with “CYP2C9” for “CYP3A4”, “HepaRG cells” for “primary hepatocytes”, “luciferin-H” for “luciferin-IPA”; type: ADME, tissue-based; conditions: dose 5-100 µM
Cytochrome P450 1A2 [28] = target: T3, Cytochrome P450 1A2; test: as §4, with “CYP1A2” for “CYP3A4”, “HepaRG cells” for “primary hepatocytes”, “luciferin-1A2” for “luciferin-IPA”; type: ADME, tissue-based; conditions: dose 5-100 µM
Hepatocyte = test: as §3, with “primary hepatocytes” for “HepaRG cells”, “assay relative to control” for “assay”; type: cell-based
Hepatitis B virus [29] = test: as §2, with “25” for “50”, “assay” for “assay relative to control”; type: functional, Primary hepatocyte; design: scale not given: the % may be the effect or the level left

T5 sequence (P11712 whole entry): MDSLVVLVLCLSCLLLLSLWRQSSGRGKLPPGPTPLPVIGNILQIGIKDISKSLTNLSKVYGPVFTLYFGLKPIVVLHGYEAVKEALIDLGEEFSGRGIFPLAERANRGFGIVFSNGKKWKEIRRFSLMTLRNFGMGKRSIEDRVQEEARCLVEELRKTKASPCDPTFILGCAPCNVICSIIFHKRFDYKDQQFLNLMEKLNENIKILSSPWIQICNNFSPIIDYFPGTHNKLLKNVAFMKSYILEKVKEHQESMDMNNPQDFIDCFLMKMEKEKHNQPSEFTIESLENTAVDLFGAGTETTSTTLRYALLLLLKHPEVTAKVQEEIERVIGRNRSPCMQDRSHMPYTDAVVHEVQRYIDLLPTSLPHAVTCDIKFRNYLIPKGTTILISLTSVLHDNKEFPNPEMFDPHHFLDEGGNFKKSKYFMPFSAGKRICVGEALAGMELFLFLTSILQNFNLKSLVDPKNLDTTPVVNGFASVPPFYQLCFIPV
T4 sequence (P08684 whole entry): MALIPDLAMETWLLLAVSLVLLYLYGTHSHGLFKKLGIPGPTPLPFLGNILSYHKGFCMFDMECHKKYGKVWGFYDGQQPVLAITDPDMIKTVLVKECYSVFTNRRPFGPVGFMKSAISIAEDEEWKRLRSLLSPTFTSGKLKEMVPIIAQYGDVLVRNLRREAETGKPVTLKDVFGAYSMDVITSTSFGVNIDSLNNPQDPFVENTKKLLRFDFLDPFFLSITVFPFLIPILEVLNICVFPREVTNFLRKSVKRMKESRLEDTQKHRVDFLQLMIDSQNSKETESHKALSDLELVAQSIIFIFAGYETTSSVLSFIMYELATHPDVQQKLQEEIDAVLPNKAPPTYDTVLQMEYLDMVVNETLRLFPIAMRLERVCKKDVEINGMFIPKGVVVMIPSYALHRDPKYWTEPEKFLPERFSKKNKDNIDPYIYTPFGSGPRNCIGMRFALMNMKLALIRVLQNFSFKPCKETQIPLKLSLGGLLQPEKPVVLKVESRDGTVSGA
T2 sequence (P11712 whole entry): as the sequence (P11712 whole entry) above
T1 sequence (P08684 whole entry): as the sequence (P08684 whole entry) above

O=C(Nc1ccc(F)cc1)c1ccc(CF)c(S(=O)(=O)N2CCOCC(O)C2)c1 (centres undefined)
EC50 (Hepatitis B virus [1]): 2100 nM
EC50 (Hepatitis B virus [2]): 200 nM
Ratio EC50 [3]: 11
half-life at 1 µM [4]: 0.342 h
half-life at 1 µM [5]: 2.65 h
CC50 [6]: > 30000 nM

COC(=O)C1=C(C)NC(c2ncc(F)cc2F)=N[C@H]1c1ccc(F)cc1Cl
EC50 (Hepatitis B virus [1]): 220 nM
EC50 (Hepatitis B virus [2]): 260 nM
half-life at 1 µM [4]: 3.15 h
half-life at 1 µM [5]: 7.18 h

CCCC(C(=O)OCCN(CC)CC)(c1ccccc1)c1ccccc1 [PROADIFEN]
Activity (Hepatitis B virus [7]): inactive
Activity (HepaRG [8]): Non-Toxic
Activity (Hepatitis B virus [9]): inactive
inhibition (INH) (Cytochrome P450 3A4 [10]): Active
inhibition (INH) (Cytochrome P450 2C9 [11]): Active
inhibition (INH) (Cytochrome P450 1A2 [12]): Active
inhibition at 1 h, 50 µM (CYP3A4 [13]): 90.3%
inhibition at 1 h, 50 µM (CYP3A4 [14]): 83.3%
inhibition at 1 h, 50 µM (CYP2C9 [15]): 82.1%
inhibition at 1 h, 50 µM (CYP2C9 [16]): 36.9%
inhibition at 1 h, 50 µM (CYP1A2 [17]): 88.8%
inhibition at 1 h, 50 µM (CYP1A2 [18]): 39.2%
inhibition at 1 h, 50 µM (CYP3A4 [19]): 93%
inhibition at 1 h, 50 µM (CYP3A4 [20]): 80.3%
inhibition at 1 h, 50 µM (CYP2C9 [21]): 42.2%
inhibition at 1 h, 50 µM (CYP2C9 [22]): 21.4%
inhibition at 1 h, 50 µM (CYP1A2 [23]): 30.8%
inhibition at 1 h, 50 µM (CYP1A2 [24]): 2.2%
Activity (HepaRG [25]): Non-Toxic
inhibition (INH) (Cytochrome P450 3A4 [26]): Active
inhibition (INH) (Cytochrome P450 2C9 [27]): Active
inhibition (INH) (Cytochrome P450 1A2 [28]): Active
Activity (Hepatocyte): 10%
Activity (Hepatitis B virus [29]): 20%

COc1ccccc1/C(Br)=C(\NC(=O)c1ccc([N+](=O)[O-])cc1)C(=O)N1CCCCC1
EC50 (Hepatitis B virus [1]): 5700 nM
EC50 (Hepatitis B virus [2]): 780 nM
Ratio EC50 [3]: 7.3
half-life at 1 µM [4]: 0.0483 h
half-life at 1 µM [5]: > 9.33 h
CC50 [6]: > 30000 nM

CCOC(=O)C1=C(CN2CCOCC2)NC(c2nccs2)=NC1c1ccc(F)cc1Br (centres undefined)
EC50 (Hepatitis B virus [1]): 590 nM
EC50 (Hepatitis B virus [2]): 11 nM
half-life at 1 µM [4]: 0.128 h
half-life at 1 µM [5]: > 9.33 h

Source: ChEMBL document CHEMBL4725437, “P450s under Restriction (PURE) Screen Using HepaRG and Primary Human Hepatocytes for Discovery of Novel HBV Antivirals” (ACS Med Chem Lett, 2020)
